Here are results for 21 compounds from US20180099931A1 (AbbVie S.à.r.l., priority 2016, published 2018).

Like-named read-outs stand apart in the source and are kept apart here.

The assay concerns the target T1, F508delCFTR (Homo sapiens, UniProt P13569, DEL508-508).
T1 construct: expressed in transfected cells; host or cells: CFBE41o- human lung-derived epithelial cells (CFBE4lo-F508delCFTR-HRP), doxycycline-inducible
In words: Cell Surface Expression-Horse Radish Peroxidase (CSE-HRP) Assay.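 As to Maximum % activity (with co-corrector): co-corrector and positive control are both the same reference corrector at 2 µM.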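 As to Maximum % activity (without co-corrector): percent of the 2 µM on-plate positive control corrector response above DMSO.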 It is filed as cell-based. The note with it: for Emax / Maximum % activity (with co-corrector): maximum at any tested concentration, normalized to on-plate positive control; for Emax: read-out: Maximum % activity (without co-corrector).

Where [1] appears, read: test compound without co-corrector.
The mark [2] stands for this setting: test compound without co-corrector, read-out: EC50 (without co-corrector).
The mark [3] stands for this setting: with co-corrector (2 μM of 3-[(2R,4R)-4-({[1-(2,2-difluoro-1,3-benzodioxol-5-yl)cyclopropyl]carbonyl}amino)-7-methoxy-3,4-dihydro-2H-chromen-2-yl]benzoic acid).
Where [4] appears, read: with co-corrector (2 μM of 3-[(2R,4R)-4-({[1-(2,2-difluoro-1,3-benzodioxol-5-yl)cyclopropyl]carbonyl}amino)-7-methoxy-3,4-dihydro-2H-chromen-2-yl]benzoic acid), read-out: EC50 (with co-corrector).

T1 sequence (P13569 with tags, fused parts or gaps DEL508-508): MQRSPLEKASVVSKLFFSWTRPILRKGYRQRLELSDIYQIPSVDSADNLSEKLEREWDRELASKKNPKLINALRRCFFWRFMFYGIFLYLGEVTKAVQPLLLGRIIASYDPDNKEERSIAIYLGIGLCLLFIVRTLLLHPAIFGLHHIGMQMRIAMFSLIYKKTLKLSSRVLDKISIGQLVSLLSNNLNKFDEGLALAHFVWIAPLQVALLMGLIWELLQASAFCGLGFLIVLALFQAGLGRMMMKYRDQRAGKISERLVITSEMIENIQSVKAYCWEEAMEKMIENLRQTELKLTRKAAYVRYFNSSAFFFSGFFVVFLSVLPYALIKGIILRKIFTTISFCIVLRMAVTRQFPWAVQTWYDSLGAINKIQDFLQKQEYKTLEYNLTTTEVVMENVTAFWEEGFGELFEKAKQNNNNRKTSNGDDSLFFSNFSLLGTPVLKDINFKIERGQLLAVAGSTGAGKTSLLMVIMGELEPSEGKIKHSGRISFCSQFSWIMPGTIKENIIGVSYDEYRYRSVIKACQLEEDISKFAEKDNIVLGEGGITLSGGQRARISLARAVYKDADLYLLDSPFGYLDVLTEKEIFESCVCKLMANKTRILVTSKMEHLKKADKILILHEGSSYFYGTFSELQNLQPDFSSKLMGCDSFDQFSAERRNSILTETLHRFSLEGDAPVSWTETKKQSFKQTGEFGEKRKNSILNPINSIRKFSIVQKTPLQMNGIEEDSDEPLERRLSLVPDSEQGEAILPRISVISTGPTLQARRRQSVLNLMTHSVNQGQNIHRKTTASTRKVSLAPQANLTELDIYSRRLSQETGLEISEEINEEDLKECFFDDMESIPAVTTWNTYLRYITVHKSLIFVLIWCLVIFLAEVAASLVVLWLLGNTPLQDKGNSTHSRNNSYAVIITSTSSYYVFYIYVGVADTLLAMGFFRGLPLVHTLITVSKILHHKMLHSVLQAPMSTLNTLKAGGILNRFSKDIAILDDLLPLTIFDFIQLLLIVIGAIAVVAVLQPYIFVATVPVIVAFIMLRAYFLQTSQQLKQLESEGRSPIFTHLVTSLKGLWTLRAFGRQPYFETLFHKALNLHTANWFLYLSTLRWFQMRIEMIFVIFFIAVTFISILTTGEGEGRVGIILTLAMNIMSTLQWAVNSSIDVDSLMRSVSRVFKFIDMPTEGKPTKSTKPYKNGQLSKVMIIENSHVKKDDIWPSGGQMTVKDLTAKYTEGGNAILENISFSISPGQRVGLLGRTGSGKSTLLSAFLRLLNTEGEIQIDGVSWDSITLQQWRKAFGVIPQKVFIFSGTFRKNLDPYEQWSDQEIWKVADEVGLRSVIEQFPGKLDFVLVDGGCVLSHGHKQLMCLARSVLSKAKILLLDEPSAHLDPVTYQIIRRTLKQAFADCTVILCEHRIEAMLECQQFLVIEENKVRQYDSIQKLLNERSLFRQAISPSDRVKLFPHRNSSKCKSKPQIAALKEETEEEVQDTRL

Regarding `CC(C)(C)[C@@H]1[C@@H](NCc2ccccc2C#N)[C@@H](c2ccccc2)N(C(=O)C2CCCCC2)[C@H]1C(=O)O` (racemic) [III-83], the Emax under setting [1] is less than 100%. Moreover, the EC50 is, setting by setting: under setting [2], more than 10 µM; under setting [4], more than 10 µM. For the same compound, under setting [3], the “Maximum % activity (with co-corrector)” value is recorded as “+ (<150)”.
With `CC(C)(C)[C@@H]1[C@@H](NCc2cc(C(F)(F)F)ccc2OCCCS(C)(=O)=O)[C@@H](c2ccccc2)N(C(=O)C2CCCCC2)[C@H]1C(=O)O` (racemic) [III-84], under setting [1], the Emax is less than 100%. Moreover, the EC50 was more than 10 µM under setting [2] and 1 to 10 µM under setting [4]. For the same compound, the “Maximum % activity (with co-corrector)” value under setting [3] is reported as “+ (<150)”.
On to `CC(C)(C)[C@@H]1[C@@H](NCc2cc(C(F)(F)F)ccc2OCCCF)[C@@H](c2ccccc2)N(C(=O)C2CCCCC2)[C@H]1C(=O)O` (racemic) [III-85], for which, under setting [1], the Emax is less than 100%. Moreover, the EC50 reads like this: under setting [2], more than 10 µM; under setting [4], 1 to 10 µM. Moreover, the “Maximum % activity (with co-corrector)” value under setting [3] is “++ (≥150 and <350)”.
For `CC(C)(C)[C@@H]1[C@@H](NCc2cc(C(F)(F)F)ccc2OCCOC(F)(F)F)[C@@H](c2ccccc2)N(C(=O)C2CCCCC2)[C@H]1C(=O)O` (racemic) [III-86], the Emax under setting [1] is less than 100%. Moreover, the concentration for a half-maximal effect (EC50) was more than 10 µM under setting [2] and 1 to 10 µM under setting [4]. The “Maximum % activity (with co-corrector)” value under setting [3] is “++ (≥150 and <350)”.
Regarding `CC(C)(C)[C@@H]1[C@@H](NCc2cc(C(F)(F)F)cnc2OCCO)[C@@H](c2ccccc2)N(C(=O)C2CCCCC2)[C@H]1C(=O)O` (racemic) [III-87], the Emax under setting [1] was less than 100%. Further, the 50% effective concentration (EC50) is, setting by setting: under setting [2], more than 10 µM; under setting [4], 1 to 10 µM. Besides, under setting [3], the “Maximum % activity (with co-corrector)” value is “++ (≥150 and <350)”.
Consider `CO[C@@H](C(=O)N1[C@H](c2cccnc2N(C)C)[C@H](Nc2cc(C(F)(F)F)cc(C)n2)[C@@H](C(C)(C)C)[C@@H]1C(=O)O)c1ccccc1` (racemic) [III-89], for which the Emax under setting [1] was less than 100%. Moreover, the concentration for a half-maximal effect (EC50) is, setting by setting: under setting [2], more than 10 µM; under setting [4], more than 10 µM. Besides, the “Maximum % activity (with co-corrector)” value under setting [3] was “+ (<150)”.
On to `CO[C@H](C(=O)N1[C@H](c2cccnc2N(C)C)[C@H](Nc2cc(C(F)(F)F)cc(C)n2)[C@@H](C(C)(C)C)[C@@H]1C(=O)O)c1ccccc1` (racemic) [III-90], for which the Emax under setting [1] is less than 100%. Besides, the EC50 was more than 10 µM under setting [2] and 1 to 10 µM under setting [4]. Moreover, under setting [3], the “Maximum % activity (with co-corrector)” value is given as “+ (<150)”.
As for `COc1ccc(CN[C@@H]2[C@@H](C(C)(C)C)[C@H](C(=O)O)N(C(=O)OC(C)C)[C@@H]2c2ccccc2)c(OC)c1` (racemic) [III-91], the Emax under setting [1] was less than 100%. Also, the half-maximal effective concentration (EC50) by setting is: under setting [2], 1 to 10 µM; under setting [4], 1 to 10 µM. Further, under setting [3], the “Maximum % activity (with co-corrector)” value was “++ (≥150 and <350)”.
For the compound `COc1cc(-c2ccccc2)ccc1CN[C@@H]1[C@@H](C(C)(C)C)[C@H](C(=O)O)N(C(=O)OC(C)C)[C@@H]1c1ccccc1` (racemic) [III-92], the Emax under setting [1] was less than 100%. The concentration giving a half-maximal response (EC50) runs as follows: under setting [2], more than 10 µM; under setting [4], more than 10 µM. Further, the “Maximum % activity (with co-corrector)” value under setting [3] is recorded as “+ (<150)”.
For the compound `Cc1cc(C(F)(F)F)cc(N[C@@H]2[C@@H](C(C)(C)C)[C@H](C(=O)O)N(C(=O)OC(C)C)[C@@H]2c2cccnc2N(C)C)n1` (racemic) [III-93], under setting [1], the Emax was less than 100%. Further, the EC50 reads like this: under setting [2], 1 to 10 µM; under setting [4], 1 to 10 µM. Moreover, under setting [3], the “Maximum % activity (with co-corrector)” value was “++ (≥150 and <350)”.
Regarding `COc1ccc(Cl)cc1CN[C@@H]1[C@@H](C(C)(C)C)[C@H](C(=O)O)N(C(=O)C2CCCCC2)[C@@H]1c1cccnc1N(C)C` (racemic) [III-94], the Emax under setting [1] lay in the range of 100 to 200%. Also, the EC50 runs as follows: under setting [2], 1 to 10 µM; under setting [4], 1 to 10 µM. The “Maximum % activity (with co-corrector)” value (with co-corrector (2 μM)) was “+++ (≥350)”.
With `COc1cccc([C@H]2[C@@H](Nc3cc(C(F)(F)F)cc(C)n3)[C@H](C(C)(C)C)[C@@H](C(=O)O)N2C(=O)C2CCCCC2)n1` (racemic) [III-97], the Emax under setting [1] was less than 100%. Further, the 50% effective concentration (EC50) under setting [2] lay within 1 to 10 µM and the concentration giving a half-maximal response (EC50) under setting [4] is 1 to 10 µM. Besides, the “Maximum % activity (with co-corrector)” value (with co-corrector (2 μM)) is “++ (≥150 and <350)”.
With `Cc1cc(C(F)(F)F)cc(N[C@@H]2[C@@H](C(C)(C)C)[C@H](C(=O)O)N(C(=O)C3CCC(F)(F)CC3)[C@@H]2c2ccccc2)n1` (racemic) [III-104], the Emax under setting [1] is less than 100%. The concentration for a half-maximal effect (EC50) runs as follows: under setting [2], more than 10 µM; under setting [4], 1 to 10 µM. For the same compound, the “Maximum % activity (with co-corrector)” value (with co-corrector (2 μM)) was “++ (≥150 and <350)”.
Take `COc1cc(C(F)(F)F)ccc1CN[C@@H]1[C@@H](C(C)(C)C)[C@H](C(=O)O)N(C(=O)C2CCC3(CC2)CC3)[C@@H]1c1ccccc1` (racemic) [III-105]: under setting [1], the Emax was less than 100%. Besides, the 50% effective concentration (EC50) is 1 to 10 µM under setting [2] and 1 to 10 µM under setting [4]. For the same compound, where the note is “with co-corrector (2 μM)”, the “Maximum % activity (with co-corrector)” value was “++ (≥150 and <350)”.
With `COc1ccc(C(F)(F)F)c(CN[C@@H]2[C@@H](C(C)(C)C)[C@H](C(=O)O)N(C(=O)C3CCCCC3)[C@@H]2c2ccccc2)c1` (racemic) [III-106], the Emax under setting [1] is less than 100%. The EC50 under setting [2] lay in the range of 1 to 10 µM and the EC50 under setting [4] was 1 to 10 µM. Moreover, the “Maximum % activity (with co-corrector)” value (with co-corrector (2 μM)) was “++ (≥150 and <350)”.
As to `COc1ccc(C(C)(C)C)cc1CN[C@@H]1[C@@H](C(C)(C)C)[C@H](C(=O)O)N(C(=O)C2CCCCC2)[C@@H]1c1ccccc1` (racemic) [III-107], under setting [1], the Emax is more than 200%. For the same compound, the 50% effective concentration (EC50) under setting [2] was less than 1 µM and the EC50 under setting [4] is less than 1 µM. The “Maximum % activity (with co-corrector)” value (with co-corrector (2 μM)) is “+++ (≥350)”.
For `CC(C)(C)[C@@H]1[C@@H](NCc2cc(F)ccc2S(C)(=O)=O)[C@@H](c2ccccc2)N(C(=O)C2CCCCC2)[C@H]1C(=O)O` (racemic) [III-108], the Emax under setting [1] was less than 100%. The concentration giving a half-maximal response (EC50) is more than 10 µM under setting [2] and 1 to 10 µM under setting [4]. In addition, the “Maximum % activity (with co-corrector)” value (with co-corrector (2 μM)) is “+ (<150)”.
Take `CC(C)(C)[C@@H]1[C@@H](NCc2cc(Br)ccc2C#N)[C@@H](c2ccccc2)N(C(=O)C2CCCCC2)[C@H]1C(=O)O` (racemic) [III-109]: under setting [1], the Emax was less than 100%. For the same compound, the EC50 reads like this: under setting [2], more than 10 µM; under setting [4], 1 to 10 µM. Further, the “Maximum % activity (with co-corrector)” value (with co-corrector (2 μM)) is “++ (≥150 and <350)”.
With `Cc1cc(C(F)(F)F)cc(N[C@@H]2[C@@H](C(C)(C)C)[C@H](C(=O)O)N(C(=O)[C@H]3C[C@H]4CC[C@@H]3C4)[C@@H]2c2ccccc2)n1` (racemic) [III-110], under setting [1], the Emax was less than 100%. In addition, the concentration for a half-maximal effect (EC50) under setting [2] was more than 10 µM and the half-maximal effective concentration (EC50) under setting [4] is 1 to 10 µM. Further, the “Maximum % activity (with co-corrector)” value (with co-corrector (2 μM)) was “++ (≥150 and <350)”.
Take `COc1cc(Cl)cnc1N[C@@H]1[C@@H](C(C)(C)OC)[C@H](C(=O)O)N(C(=O)C2CCCCC2)[C@@H]1c1ccccc1` (racemic) [III-111]: the Emax under setting [1] was less than 100%. Further, the EC50 under setting [2] fell in the range of 1 to 10 µM and the concentration giving a half-maximal response (EC50) under setting [4] fell in the range of 1 to 10 µM. Moreover, the “Maximum % activity (with co-corrector)” value (with co-corrector (2 μM)) is “++ (≥150 and <350)”.
In the case of `COc1cc(C(F)(F)F)ccc1CN[C@@H]1[C@@H](C(C)(C)C)[C@H](C(=O)O)N(C(=O)C2COCCO2)[C@@H]1c1ccccc1` (mixture of isomers) [III-113], the Emax under setting [1] was less than 100%. Further, the EC50 runs as follows: under setting [2], 1 to 10 µM; under setting [4], 1 to 10 µM. For the same compound, the “Maximum % activity (with co-corrector)” value (with co-corrector (2 μM)) was “++ (≥150 and <350)”.

Broadly, the EC50 is the concentration that produces a half-maximal response.
